Experimental data reported in PMC4655838, “Versatility in phospho-dependent molecular recognition of the XRCC1 and XRCC4 DNA-damage scaffolds by aprataxin-family FHA domains” (DNA Repair, 2015).
Where two headings read alike, the source gives them in different places. Peptide text beside a SMILES is read from it.

How the values were obtained:
Format in all cases: binding
aprataxin FHA domain = target: T1, aprataxin FHA domain (Homo sapiens, UniProt Q7Z2E3); assay: NMR (1H-SOFAST-HMQC) titrations of aprataxin FHA domain with XRCC1 phosphopeptides; conditions: NMR titration, 22 °C
T1 construct: aprataxin residues 1–105; GST (pGEX-6P-1) (N, cleaved yes); made in house; host or cells: Escherichia coli BL21 (DE3)
T1 sequence (Q7Z2E3 15-119): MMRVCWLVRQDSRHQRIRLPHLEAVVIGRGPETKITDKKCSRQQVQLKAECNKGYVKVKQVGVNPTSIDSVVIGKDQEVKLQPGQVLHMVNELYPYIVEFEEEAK
Method: NMR experiments were carried out at 22 °C on Bruker Avance II+ 600 MHz and Avance III 700 MHz spectrometers, each equipped with a cryogenic triple-resonance probe. Protein and peptides were prepared in NMR buffer (20 mM Na Acetate pH 5.8, 50 mM NaCl, 2 mM DTT). Three-dimensional HNCA, HNCO, HNCACB and CBCA(CO)NH experiments were performed to obtain backbone assignments. NMR titration experiments were carried out by adding the unlabelled XRCC1 peptides to ^15N-labeled aprataxin FHA domain. The initial protein concentration was 92 μM and volumes of 2 mM stock solution of peptide were added until the protein:peptide ratio was 1:4. ^1H-SOFAST-HMQC [36] spectra were measured after each titration step. All spectra were processed using nmrPipe, and analysed using CARA/NEASY [38]. The weighted chemical shift change (in ppm units) of each amide proton (ΔδHN) and nitrogen (ΔδN) was calculated according to the equation: Δδtotal = [(ΔδHNWHN)^2 + (ΔδNWN)^2]^1/2 with WHN = 1 and WN = 0.154 [39]. Weighted chemical shifts for residues D37, V45, Q46, V61 and V63 were plotted against peptide concentration to determine individual Kds and averaged to determine the apparent Kd.

[1] = target: T2, wild-type aprataxin FHA domain (Homo sapiens, UniProt Q7Z2E3); assay: ITC of wild-type aprataxin FHA domain with XRCC1 and XRCC4 phosphopeptides; conditions: 22 °C, 50 mM HEPES pH 7.5, 150 mM NaCl, 5 mM β-mercaptoethanol, peptide in syringe, XRCC1 peptides 1 mM into 100 μM protein, XRCC4 peptides 300 μM into 30 μM protein, single-site model, representative of triplicate
T2 construct: aprataxin residues 1–105; GST (pGEX-6P-1) (N, cleaved yes); made in house; host or cells: Escherichia coli BL21 (DE3)
T2 sequence (Q7Z2E3 15-119): as above
From the text: (§1) The genes for aprataxin residues 1–105 and APLF residues 1–106 were amplified using primer sets which incorporated 5′ BamHI and 3′ XhoI sites. PCR products and pGEX-6P-1 vector were digested with BamHI and XhoI and religated. All point mutations were generated using a QuickChange Site-Directed Mutagenesis Kit (Stratagene) following the manufacturer's recommended protocol.
(§2) For expression, the pGEX-6P-1/aprataxin-FHA constructs were transformed into Escherichia coli strain BL21 (DE3) and the pGEX-6P-1/APLF-FHA constructs transformed into the strain Rosetta2 (DE3). Cells were grown in LB at 37 °C to an A600 of 0.5, induced with 0.4 mM isopropyl 1-thio-β-D-galactopyranoside and incubated at 18 °C for a further 16 h before harvesting. Cells were lysed by sonication and clarified by centrifugation (20,000 × g × 30 min). The supernatant was applied to a glutathione-4B resin (Amersham) and cleaved from the resin with rhinovirus 3C protease. Proteins were purified further by gel-filtration chromatography on a Superdex 75 matrix in 20 mM Tris pH 7.5, 150 mM NaCl, 5 mM DTT. Selenomethionine-labelled APLF L91 M protein was expressed in Rosetta2 (DE3) cells cultured in SelenoMet base media and nutrients supplemented with seleno-methionine solution (Molecular Dimensions Ltd.) and purified as the wild-type protein.
(§3) Phosphopeptides based on the XRCC1 sequence 515-YAGSTDENTDSEEHQ-529 and the XRCC4 sequence 229-YDESTDEES-237 were synthesised with amidated C-termini to avoid potential end-effects of a free carboxy-terminus by Dr. W. Mawby (University of Bristol), purified by HPLC and characterised by mass spectrometry. FHA-phosphopeptide binding was quantified by isothermal titration calorimetry using a Microcal Omega VP-ITC calorimeter (MicroCal Inc., Northampton, MA). Protein was dialysed against ITC buffer (50 mM HEPES pH 7.5, 150 mM NaCl, 5 mM β-mercaptoethanol) and peptides were dissolved in the dialysis buffer. Experiments were carried out at 22 °C and involved 30 successive 10 μl injections of peptide solution into a sample cell containing protein solution. Titrations with XRCC1 peptides used peptide at 1 mM and protein at 100 μM and titrations with XRCC4 peptides used peptide at 300 μm and protein at 30 μM. Heats of dilution were subtracted and binding isotherms were plotted and analysed with MicroCal origin version 7.0, assuming a single-site binding model.

[2] = target: T3, R42A Mutant of aprataxin FHA domain (Homo sapiens, UniProt Q7Z2E3, R56A); assay: ITC of R42A mutant of aprataxin FHA domain with XRCC1 and XRCC4 phosphopeptides; conditions: 22 °C, 50 mM HEPES pH 7.5, 150 mM NaCl, 5 mM β-mercaptoethanol, single-site model
T3 construct: aprataxin residues 1–105; GST (pGEX-6P-1) (N, cleaved yes); made in house; host or cells: Escherichia coli BL21 (DE3)
T3 sequence (Q7Z2E3 15-119 R56A): as the sequence (Q7Z2E3 15-119) above, with R42A counted along it
From the text: as §1, §2, §3

[3] = target: T4, K38A Mutant of aprataxin FHA domain (Homo sapiens, UniProt Q7Z2E3, K52A); assay: ITC of K38A mutant of aprataxin FHA domain with XRCC1 and XRCC4 phosphopeptides; conditions: 22 °C, 50 mM HEPES pH 7.5, 150 mM NaCl, 5 mM β-mercaptoethanol, single-site model
T4 construct: aprataxin residues 1–105; GST (pGEX-6P-1) (N, cleaved yes); made in house; host or cells: Escherichia coli BL21 (DE3)
T4 sequence (Q7Z2E3 15-119 K52A): as the sequence (Q7Z2E3 15-119) above, with K38A counted along it
From the text: as §1, §2, §3

[4] = 20 mM Na Acetate pH 5.8, 50 mM NaCl, 2 mM DTT, 92 µM 15N aprataxin FHA, 2 mM peptide stock, read-out: Kd from weighted chemical shift of residue Asp37
[5] = pH 5.8, 92 µM aprataxin FHA, read-out: Kd from weighted chemical shift of residue Gln46
[6] = pH 5.8, 92 µM aprataxin FHA, read-out: Kd from weighted chemical shift of residue Val45
[7] = pH 5.8, 92 µM aprataxin FHA, read-out: Kd from weighted chemical shift of residue Val61
[8] = pH 5.8, 92 µM aprataxin FHA, read-out: Kd from weighted chemical shift of residue Val63

| SMILES | Kd (aprataxin FHA domain; [4]) [µM] | Kd (aprataxin FHA domain; [5]) [µM] | Kd (aprataxin FHA domain; [6]) [µM] | Kd (aprataxin FHA domain; [7]) [µM] | Kd (aprataxin FHA domain; [8]) [µM] | Kd (aprataxin FHA domain; pH 5.8, tighter binders not well defined due to high protein concentration, read-out: overall apparent affinity (Kdapp) estimated from NMR titrations) [µM] | Kd [1] [µM] | Kd [2] [µM] | Kd [3] [µM] |
| --- | --- | --- | --- | --- | --- | --- | --- | --- | --- |
| C[C@H](NC(=O)[C@@H](N)Cc1ccc(O)cc1)C(=O)NCC(=O)N[C@@H](CO)C(=O)N[C@H](C(=O)N[C@@H](CC(=O)O)C(=O)N[C@@H](CCC(=O)O)C(=O)N[C@@H](CC(N)=O)C(=O)N[C@H](C(=O)N[C@@H](CC(=O)O)C(=O)N[C@@H](CO)C(=O)N[C@@H](CCC(=O)O)C(=O)N[C@@H](CCC(=O)O)C(=O)N[C@@H](Cc1c[nH]cn1)C(=O)N[C@@H](CCC(N)=O)C(N)=O)[C@@H](C)OP(=O)(O)O)[C@@H](C)O [YAGSTDENpTDSEEHQ] (HELM PEPTIDE1{Y.A.G.S.T.D.E.N.[C[C@@H](OP(=O)(O)O)[C@H](N[*:1])C(=O)[*:2]].D.S.E.E.H.Q.[am]}$$$$V2.0) | 7.6 | 5.9 | 9.8 | 4 | 7.9 | 7 | 42 ± 3.8 |  |  |
| C[C@H](NC(=O)[C@@H](N)Cc1ccc(O)cc1)C(=O)NCC(=O)N[C@@H](CO)C(=O)N[C@H](C(=O)N[C@@H](CC(=O)O)C(=O)N[C@@H](CCC(=O)O)C(=O)N[C@@H](CC(N)=O)C(=O)N[C@H](C(=O)N[C@@H](CC(=O)O)C(=O)N[C@@H](COP(=O)(O)O)C(=O)N[C@@H](CCC(=O)O)C(=O)N[C@@H](CCC(=O)O)C(=O)N[C@@H](Cc1c[nH]cn1)C(=O)N[C@@H](CCC(N)=O)C(N)=O)[C@@H](C)OP(=O)(O)O)[C@@H](C)O [YAGSTDENpTDpSEEHQ] (HELM PEPTIDE1{Y.A.G.S.T.D.E.N.[C[C@@H](OP(=O)(O)O)[C@H](N[*:1])C(=O)[*:2]].D.[O=C([C@H](COP(=O)(O)O)N[*:1])[*:2]].E.E.H.Q.[am]}$$$$V2.0) |  |  |  |  |  |  | 33 ± 0.87 |  |  |
| C[C@H](NC(=O)[C@@H](N)Cc1ccc(O)cc1)C(=O)NCC(=O)N[C@@H](CO)C(=O)N[C@H](C(=O)N[C@@H](CC(=O)O)C(=O)N[C@@H](CCC(=O)O)C(=O)N[C@@H](CC(N)=O)C(=O)N[C@H](C(=O)N[C@@H](CC(=O)O)C(=O)N[C@@H](CO)C(=O)N[C@@H](CCC(=O)O)C(=O)N[C@@H](CCC(=O)O)C(=O)N[C@@H](Cc1c[nH]cn1)C(=O)N[C@@H](CCC(N)=O)C(N)=O)[C@@H](C)O)[C@@H](C)OP(=O)(O)O [YAGSpTDENTDSEEHQ] (HELM PEPTIDE1{Y.A.G.S.[C[C@@H](OP(=O)(O)O)[C@H](N[*:1])C(=O)[*:2]].D.E.N.T.D.S.E.E.H.Q.[am]}$$$$V2.0) | 9.6 | 5.3 | 8.1 | 4.2 | 6.8 |  | 17 ± 0.4 | ≥ 100 | 46 ± 2 |
| C[C@H](NC(=O)[C@@H](N)Cc1ccc(O)cc1)C(=O)NCC(=O)N[C@@H](COP(=O)(O)O)C(=O)N[C@H](C(=O)N[C@@H](CC(=O)O)C(=O)N[C@@H](CCC(=O)O)C(=O)N[C@@H](CC(N)=O)C(=O)N[C@H](C(=O)N[C@@H](CC(=O)O)C(=O)N[C@@H](CO)C(=O)N[C@@H](CCC(=O)O)C(=O)N[C@@H](CCC(=O)O)C(=O)N[C@@H](Cc1c[nH]cn1)C(=O)N[C@@H](CCC(N)=O)C(N)=O)[C@@H](C)O)[C@@H](C)OP(=O)(O)O [YAGpSpTDENTDSEEHQ] (HELM PEPTIDE1{Y.A.G.[O=C([C@H](COP(=O)(O)O)N[*:1])[*:2]].[C[C@@H](OP(=O)(O)O)[C@H](N[*:1])C(=O)[*:2]].D.E.N.T.D.S.E.E.H.Q.[am]}$$$$V2.0) | 2 | 1.7 | 2.5 | 1.6 | 2.1 |  | 1.5 ± 0.06 | 53.2 ± 5.8 | 12.8 ± 0.7 |
